# Results reported in US20020137929A1, “1 - (3-heterocyclylphenyl) isothiourea, -isourea, -guanidine and -amidine herbicidal agents” (Intellectual Property Department, BASF Aktiengesellschaft, priority 1998, published 2002).
# Columns and labels:
# SETVI (Foxtail, Green) [1] = experiment: Postemergence herbicidal evaluation; format: in vivo, Setaria viridis; details: postemergence
# Method in brief: (§1)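 First, seedlings were raised for around two weeks. Next, test material in 50/50 acetone/water containing 0.5% TWEEN 20 was sprayed through a nozzle at 40 psi, equivalent to about 0.0156–0.500 kg/ha. Finally, after 4–5 weeks in the greenhouse, plants were rated 0–9.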
# ORYSAT (Rice, Tebonnet) = experiment: Postemergence herbicidal evaluation; format: in vivo, Oryza sativa, (L.) Tebonnet; details: postemergence
# Method in brief: as §1
# ZEAMX (Corn, Field) [2] = experiment: Postemergence herbicidal evaluation; format: in vivo, Zea mays; details: postemergence
# Method in brief: as §1
# ECHCG (Barnyardgrass) = experiment: Preemergence herbicidal evaluation; format: in vivo, Echinochloa crus-galli; details: rated 4-5 weeks after treatment, rating scale 0-9
# Method in brief: (§2)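 Each species is sown separately in potting soil over roughly an inch of soil before any emergence. The soil surface then receives an aqueous acetone spray delivering about 0.0156 to 0.500 kg/ha of compound. After four to five weeks, injury is scored from 0 to 9 relative to a control.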
# SETVI (Foxtail, Green) [3] = experiment: Preemergence herbicidal evaluation; format: in vivo, Setaria viridis; details: rated 4-5 weeks after treatment, rating scale 0-9
# Method in brief: as §2
# [4] = system: TRZAWR (Wheat, Winter, cv Riband); experiment: Preemergence herbicidal evaluation; format: in vivo, Triticum aestivum; details: rated 4-5 weeks after treatment, rating scale 0-9
# Method in brief: as §2
# ZEAMX (Corn, Field) [5] = experiment: Preemergence herbicidal evaluation; format: in vivo, Zea mays; details: rated 4-5 weeks after treatment, rating scale 0-9
# Method in brief: as §2
# [6] = system: ECHORC (Watergrass (Calif.)); experiment: Preemergence weed control under flooded paddy conditions; format: in vivo, Echinochloa oryzoides; details: rated 3-4 weeks after treatment
# Method in brief: (§3)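 Visual injury scored 0-9 against control three to four weeks post-treatment, greenhouse-grown. Application: acetone/water (50/50) solutions dosed directly into flood water (1.5-3 cm over silt loam, planted top 0.5 cm), roughly 0.0313 to 0.500 kg/ha active ingredient.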
# CYPIR (Rice Flatsedge) = experiment: as above; format: in vivo, Cyperus iria; details: rated 3-4 weeks after treatment
# Method in brief: as §3
# CYPSE (Flatsedge) = experiment: as above; format: in vivo, Cyperus serotinus; details: rated 3-4 weeks after treatment
# Method in brief: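 Silt loam, seeds in top 0.5 cm; flood held 1.5-3 cm; test cpd as acetone/water 50/50 into flood water, ~0.0313-0.500 kg/ha a.i.; greenhouse 3-4 wk; visual 0-9 score vs control.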
structure (smiles),measurement,setting,value
"CN(C)c1ccc(CN2C(=O)CSC2=Nc2cc(-n3c(=O)cc(C(F)(F)F)n(C)c3=O)c(F)cc2Cl)cc1 [Compound 138, 3-{4-Chloro-5-{{3-[p-(dimethylamino)benzyl]-4-oxo-2-thiazolidinylidene}amino}-2-fluorophenyl}-1-methyl-6-(trifluoromethyl)-2,4(1H,3H)-pyrimidinedione]",Herbicidal rating SETVI,"SETVI (Foxtail, Green) [1]; rate 0.0156 kg/ha",3.0
same,Herbicidal rating SETVI,"SETVI (Foxtail, Green) [1]; rate 0.0313 kg/ha",4.0
same,Herbicidal rating SETVI,"SETVI (Foxtail, Green) [1]; rate 0.0625 kg/ha",9.0
same,Herbicidal rating ORYSAT,"ORYSAT (Rice, Tebonnet); rate 0.0156 kg/ha",1.5
same,Herbicidal rating ORYSAT,"ORYSAT (Rice, Tebonnet); rate 0.0313 kg/ha",2.5
same,Herbicidal rating ORYSAT,"ORYSAT (Rice, Tebonnet); rate 0.0625 kg/ha",3.0
same,Herbicidal rating ZEAMX,"ZEAMX (Corn, Field) [2]; rate 0.0156 kg/ha",4.0
same,Herbicidal rating ZEAMX,"ZEAMX (Corn, Field) [2]; rate 0.0313 kg/ha",4.5
same,Herbicidal rating ZEAMX,"ZEAMX (Corn, Field) [2]; rate 0.0625 kg/ha",5.0
same,Preemergence herbicidal rating ECHCG,ECHCG (Barnyardgrass); rate 0.0156 kg/ha,0.0
same,Preemergence herbicidal rating ECHCG,ECHCG (Barnyardgrass); rate 0.0313 kg/ha,0.0
same,Preemergence herbicidal rating ECHCG,ECHCG (Barnyardgrass); rate 0.0625 kg/ha,0.0
same,Preemergence herbicidal rating ECHCG,ECHCG (Barnyardgrass); rate 0.1250 kg/ha,0.0
same,Preemergence herbicidal rating ECHCG,ECHCG (Barnyardgrass); rate 0.2500 kg/ha,0.0
same,Preemergence herbicidal rating SETVI,"SETVI (Foxtail, Green) [3]; rate 0.0156 kg/ha",0.0
same,Preemergence herbicidal rating SETVI,"SETVI (Foxtail, Green) [3]; rate 0.0313 kg/ha",0.0
same,Preemergence herbicidal rating SETVI,"SETVI (Foxtail, Green) [3]; rate 0.0625 kg/ha",0.0
same,Preemergence herbicidal rating SETVI,"SETVI (Foxtail, Green) [3]; rate 0.1250 kg/ha",3.0
same,Preemergence herbicidal rating SETVI,"SETVI (Foxtail, Green) [3]; rate 0.2500 kg/ha",2.0
same,Preemergence herbicidal rating TRZAWR,[4]; rate 0.0156 kg/ha,0.0
same,Preemergence herbicidal rating TRZAWR,[4]; rate 0.0313 kg/ha,0.0
same,Preemergence herbicidal rating TRZAWR,[4]; rate 0.0625 kg/ha,0.0
same,Preemergence herbicidal rating TRZAWR,[4]; rate 0.1250 kg/ha,0.0
same,Preemergence herbicidal rating TRZAWR,[4]; rate 0.2500 kg/ha,0.0
same,Preemergence herbicidal rating ZEAMX,"ZEAMX (Corn, Field) [5]; rate 0.0156 kg/ha",0.0
same,Preemergence herbicidal rating ZEAMX,"ZEAMX (Corn, Field) [5]; rate 0.0313 kg/ha",0.0
same,Preemergence herbicidal rating ZEAMX,"ZEAMX (Corn, Field) [5]; rate 0.0625 kg/ha",0.0
same,Preemergence herbicidal rating ZEAMX,"ZEAMX (Corn, Field) [5]; rate 0.1250 kg/ha",0.0
same,Preemergence herbicidal rating ZEAMX,"ZEAMX (Corn, Field) [5]; rate 0.2500 kg/ha",0.0
same,"herbicidal effect rating, ECHORC",[6]; 0.0313 kg/ha,7.0
same,"herbicidal effect rating, ECHORC",[6]; 0.0625 kg/ha,9.0
same,"herbicidal effect rating, ECHORC",[6]; 0.1250 kg/ha,9.0
same,"herbicidal effect rating, ECHORC",[6]; 0.2500 kg/ha,9.0
same,"herbicidal effect rating, CYPIR",CYPIR (Rice Flatsedge); 0.0313 kg/ha,2.0
same,"herbicidal effect rating, CYPIR",CYPIR (Rice Flatsedge); 0.0625 kg/ha,2.0
same,"herbicidal effect rating, CYPIR",CYPIR (Rice Flatsedge); 0.1250 kg/ha,3.0
same,"herbicidal effect rating, CYPIR",CYPIR (Rice Flatsedge); 0.2500 kg/ha,5.0
same,"herbicidal effect rating, CYPSE",CYPSE (Flatsedge); 0.0313 kg/ha,0.0
same,"herbicidal effect rating, CYPSE",CYPSE (Flatsedge); 0.0625 kg/ha,0.0
same,"herbicidal effect rating, CYPSE",CYPSE (Flatsedge); 0.1250 kg/ha,0.0
same,"herbicidal effect rating, CYPSE",CYPSE (Flatsedge); 0.2500 kg/ha,0.0
"COc1cc(CN2C(=O)CSC2=Nc2cc(-n3c(=O)cc(C(F)(F)F)n(C)c3=O)c(F)cc2Cl)cc(OC)c1OC [Compound 140, 3-{4-Chloro-2-fluoro-5-{[3-(3,4,5-trimethoxybenzyl)-4-oxo-2-thiazolidinylidene]amino}phenyl}-1-methyl-6-(trifluoromethyl)-2,4(1H,3H)-pyrimidinedione]",Herbicidal rating SETVI,"SETVI (Foxtail, Green) [1]; rate 0.0156 kg/ha",0.0
same,Herbicidal rating SETVI,"SETVI (Foxtail, Green) [1]; rate 0.0313 kg/ha",0.0
same,Herbicidal rating SETVI,"SETVI (Foxtail, Green) [1]; rate 0.0625 kg/ha",0.0
same,Herbicidal rating ORYSAT,"ORYSAT (Rice, Tebonnet); rate 0.0156 kg/ha",0.5
same,Herbicidal rating ORYSAT,"ORYSAT (Rice, Tebonnet); rate 0.0313 kg/ha",0.5
same,Herbicidal rating ORYSAT,"ORYSAT (Rice, Tebonnet); rate 0.0625 kg/ha",1.5
same,Herbicidal rating ZEAMX,"ZEAMX (Corn, Field) [2]; rate 0.0156 kg/ha",3.5
same,Herbicidal rating ZEAMX,"ZEAMX (Corn, Field) [2]; rate 0.0313 kg/ha",4.0
same,Herbicidal rating ZEAMX,"ZEAMX (Corn, Field) [2]; rate 0.0625 kg/ha",4.0
same,Preemergence herbicidal rating ECHCG,ECHCG (Barnyardgrass); rate 0.0625 kg/ha,0.0
same,Preemergence herbicidal rating ECHCG,ECHCG (Barnyardgrass); rate 0.1250 kg/ha,0.0
same,Preemergence herbicidal rating ECHCG,ECHCG (Barnyardgrass); rate 0.2500 kg/ha,0.0
same,Preemergence herbicidal rating SETVI,"SETVI (Foxtail, Green) [3]; rate 0.0625 kg/ha",0.0
same,Preemergence herbicidal rating SETVI,"SETVI (Foxtail, Green) [3]; rate 0.1250 kg/ha",0.0
same,Preemergence herbicidal rating SETVI,"SETVI (Foxtail, Green) [3]; rate 0.2500 kg/ha",0.0
same,Preemergence herbicidal rating TRZAWR,[4]; rate 0.0625 kg/ha,0.0
same,Preemergence herbicidal rating TRZAWR,[4]; rate 0.1250 kg/ha,0.0
same,Preemergence herbicidal rating TRZAWR,[4]; rate 0.2500 kg/ha,0.0
same,Preemergence herbicidal rating ZEAMX,"ZEAMX (Corn, Field) [5]; rate 0.0625 kg/ha",0.0
same,Preemergence herbicidal rating ZEAMX,"ZEAMX (Corn, Field) [5]; rate 0.1250 kg/ha",0.0
same,Preemergence herbicidal rating ZEAMX,"ZEAMX (Corn, Field) [5]; rate 0.2500 kg/ha",0.0
same,"herbicidal effect rating, ECHORC",[6]; 0.0313 kg/ha,5.0
same,"herbicidal effect rating, ECHORC",[6]; 0.0625 kg/ha,5.0
same,"herbicidal effect rating, ECHORC",[6]; 0.1250 kg/ha,7.0
same,"herbicidal effect rating, ECHORC",[6]; 0.2500 kg/ha,7.0
same,"herbicidal effect rating, CYPIR",CYPIR (Rice Flatsedge); 0.0313 kg/ha,4.0
same,"herbicidal effect rating, CYPIR",CYPIR (Rice Flatsedge); 0.0625 kg/ha,7.0
same,"herbicidal effect rating, CYPIR",CYPIR (Rice Flatsedge); 0.1250 kg/ha,9.0
same,"herbicidal effect rating, CYPIR",CYPIR (Rice Flatsedge); 0.2500 kg/ha,7.0
same,"herbicidal effect rating, CYPSE",CYPSE (Flatsedge); 0.0313 kg/ha,0.0
same,"herbicidal effect rating, CYPSE",CYPSE (Flatsedge); 0.0625 kg/ha,0.0
same,"herbicidal effect rating, CYPSE",CYPSE (Flatsedge); 0.1250 kg/ha,0.0
same,"herbicidal effect rating, CYPSE",CYPSE (Flatsedge); 0.2500 kg/ha,0.0
